According to ChEMBL document CHEMBL6109038, “Discovery of potent dihydro-oxazinoquinolinone inhibitors of GuaB for the treatment of tuberculosis” (Bioorg Med Chem Lett, 2025):
Values after ≈ are worked out from the molar mass of the structure shown.

Legend:
[1] = test system: Mycobacterium tuberculosis; assay: Antitubercular activity against Mycobacterium tuberculosis H37Ra assessed as inhibition of bacterial growth; type: functional
[2] = test system: Mycobacterium tuberculosis; assay: Antitubercular activity against Mycobacterium tuberculosis H37Rv assessed as inhibition of bacterial growth; type: functional
[3] = Clearance in human liver microsomes; type: ADME, Microsome
[4] = target: T1, Cytochrome P450 3A4 (Homo sapiens, UniProt P08684); assay: Inhibition of CYP3A4 (unknown origin); type: ADME
T1 sequence (P08684 whole entry): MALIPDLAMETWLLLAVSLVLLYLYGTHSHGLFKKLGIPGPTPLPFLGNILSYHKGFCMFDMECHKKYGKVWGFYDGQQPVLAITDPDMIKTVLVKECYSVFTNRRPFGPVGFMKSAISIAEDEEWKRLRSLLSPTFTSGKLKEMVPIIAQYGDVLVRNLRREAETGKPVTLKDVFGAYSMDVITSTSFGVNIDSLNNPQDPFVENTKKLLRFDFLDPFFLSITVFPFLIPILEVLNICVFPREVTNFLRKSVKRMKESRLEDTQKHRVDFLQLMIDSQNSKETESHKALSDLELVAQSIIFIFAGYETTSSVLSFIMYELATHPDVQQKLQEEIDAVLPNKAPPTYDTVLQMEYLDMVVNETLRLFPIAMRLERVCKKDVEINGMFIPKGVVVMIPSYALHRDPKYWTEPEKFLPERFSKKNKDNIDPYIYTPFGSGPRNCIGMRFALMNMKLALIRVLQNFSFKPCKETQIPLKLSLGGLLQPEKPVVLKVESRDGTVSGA

[5] = target: T2, Cytochrome P450 1A2 (Homo sapiens, UniProt P05177); assay: Inhibition of CYP1A2 (unknown origin); type: ADME
T2 sequence (P05177 whole entry): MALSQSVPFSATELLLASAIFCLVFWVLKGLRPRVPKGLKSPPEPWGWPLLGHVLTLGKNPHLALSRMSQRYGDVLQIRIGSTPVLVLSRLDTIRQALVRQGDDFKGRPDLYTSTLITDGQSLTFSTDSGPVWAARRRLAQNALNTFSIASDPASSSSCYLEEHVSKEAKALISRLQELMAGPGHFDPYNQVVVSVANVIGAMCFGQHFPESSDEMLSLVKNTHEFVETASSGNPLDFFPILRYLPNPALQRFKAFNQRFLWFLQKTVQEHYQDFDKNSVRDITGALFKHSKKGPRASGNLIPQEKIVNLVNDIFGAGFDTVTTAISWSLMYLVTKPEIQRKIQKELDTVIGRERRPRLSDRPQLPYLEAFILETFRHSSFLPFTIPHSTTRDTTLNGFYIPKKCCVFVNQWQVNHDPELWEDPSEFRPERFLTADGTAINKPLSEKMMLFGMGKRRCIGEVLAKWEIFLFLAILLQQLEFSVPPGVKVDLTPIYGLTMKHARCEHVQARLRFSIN

[6] = target: T3, Cytochrome P450 2C8 (Homo sapiens, UniProt P10632); assay: Inhibition of CYP2C8 (unknown origin); type: ADME
T3 sequence (P10632 whole entry): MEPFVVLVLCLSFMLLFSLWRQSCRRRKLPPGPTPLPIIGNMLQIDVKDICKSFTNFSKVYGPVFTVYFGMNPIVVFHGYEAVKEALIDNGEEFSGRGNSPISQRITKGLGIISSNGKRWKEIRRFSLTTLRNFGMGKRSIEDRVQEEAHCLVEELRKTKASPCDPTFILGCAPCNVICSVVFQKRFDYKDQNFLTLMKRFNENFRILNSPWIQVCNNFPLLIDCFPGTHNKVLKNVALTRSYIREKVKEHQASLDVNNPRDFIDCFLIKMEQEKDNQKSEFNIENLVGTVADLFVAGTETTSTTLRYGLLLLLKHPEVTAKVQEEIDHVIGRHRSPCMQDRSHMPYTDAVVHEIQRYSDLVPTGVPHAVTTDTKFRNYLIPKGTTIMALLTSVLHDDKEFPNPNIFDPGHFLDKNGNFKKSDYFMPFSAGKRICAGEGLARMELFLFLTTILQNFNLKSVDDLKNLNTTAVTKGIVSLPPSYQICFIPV

[7] = target: Cytochrome P450 2C9 (Homo sapiens, UniProt P11712); assay: Inhibition of CYP2C9 (unknown origin); type: ADME
Chain of Cytochrome P450 2C9 (P11712 whole entry): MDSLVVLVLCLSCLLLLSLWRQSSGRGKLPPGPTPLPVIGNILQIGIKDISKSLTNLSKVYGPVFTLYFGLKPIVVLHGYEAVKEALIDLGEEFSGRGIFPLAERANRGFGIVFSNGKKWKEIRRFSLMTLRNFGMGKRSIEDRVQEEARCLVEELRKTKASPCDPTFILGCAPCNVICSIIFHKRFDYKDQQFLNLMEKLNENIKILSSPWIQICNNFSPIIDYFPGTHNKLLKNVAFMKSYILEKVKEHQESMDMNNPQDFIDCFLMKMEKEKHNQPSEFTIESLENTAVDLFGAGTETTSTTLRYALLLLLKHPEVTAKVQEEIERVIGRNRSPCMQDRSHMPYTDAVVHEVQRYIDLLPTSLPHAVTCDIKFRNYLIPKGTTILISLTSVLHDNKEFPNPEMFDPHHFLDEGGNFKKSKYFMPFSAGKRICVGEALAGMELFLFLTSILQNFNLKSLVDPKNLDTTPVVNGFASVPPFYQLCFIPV

[8] = target: Cytochrome P450 2D6 (Homo sapiens, UniProt P10635); assay: Inhibition of CYP2D6 (unknown origin); type: ADME
Chain of Cytochrome P450 2D6 (P10635 whole entry): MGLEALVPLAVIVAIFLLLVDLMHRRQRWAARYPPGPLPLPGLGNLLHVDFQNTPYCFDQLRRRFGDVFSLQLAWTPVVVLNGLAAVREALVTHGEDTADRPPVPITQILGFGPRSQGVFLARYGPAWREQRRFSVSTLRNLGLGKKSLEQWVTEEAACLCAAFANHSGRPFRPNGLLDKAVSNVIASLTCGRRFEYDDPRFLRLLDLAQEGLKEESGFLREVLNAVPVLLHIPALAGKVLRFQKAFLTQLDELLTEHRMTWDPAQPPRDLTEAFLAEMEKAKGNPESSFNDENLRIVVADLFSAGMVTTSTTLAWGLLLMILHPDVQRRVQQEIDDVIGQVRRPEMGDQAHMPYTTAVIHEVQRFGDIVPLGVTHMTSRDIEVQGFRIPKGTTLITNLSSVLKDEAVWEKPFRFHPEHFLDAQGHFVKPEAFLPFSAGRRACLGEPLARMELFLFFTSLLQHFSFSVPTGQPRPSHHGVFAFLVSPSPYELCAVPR

[9] = target: T1, Cytochrome P450 3A4; assay: Inhibition of CYP3A4 (unknown origin) using testosterone as substrate; type: ADME
[10] = Lipophilicity, logD of the compound measured at pH 7.4; type: physicochemical; details: buffer
[11] = test system: Mycobacterium tuberculosis; assay: Antitubercular activity against Mycobacterium tuberculosis ATCC 27294 assessed as inhibition of bacterial growth measured after 1 week by broth microdilution method; type: functional; details: ATCC 27294, 168 h, time 1 weeks
[12] = test system: Mycobacterium tuberculosis; assay: Antitubercular activity against Mycobacterium tuberculosis H37RvMA assessed as inhibition of bacterial growth by Alamar blue dye based broth microdilution method; type: functional
[13] = Clearance in mouse; type: ADME, organism-based; details: in vivo
[14] = target: hERG (Homo sapiens, UniProt Q12809); assay: Inhibition of hERG at 10 uM relative to control; type: toxicity
Chain of hERG (Q12809 whole entry): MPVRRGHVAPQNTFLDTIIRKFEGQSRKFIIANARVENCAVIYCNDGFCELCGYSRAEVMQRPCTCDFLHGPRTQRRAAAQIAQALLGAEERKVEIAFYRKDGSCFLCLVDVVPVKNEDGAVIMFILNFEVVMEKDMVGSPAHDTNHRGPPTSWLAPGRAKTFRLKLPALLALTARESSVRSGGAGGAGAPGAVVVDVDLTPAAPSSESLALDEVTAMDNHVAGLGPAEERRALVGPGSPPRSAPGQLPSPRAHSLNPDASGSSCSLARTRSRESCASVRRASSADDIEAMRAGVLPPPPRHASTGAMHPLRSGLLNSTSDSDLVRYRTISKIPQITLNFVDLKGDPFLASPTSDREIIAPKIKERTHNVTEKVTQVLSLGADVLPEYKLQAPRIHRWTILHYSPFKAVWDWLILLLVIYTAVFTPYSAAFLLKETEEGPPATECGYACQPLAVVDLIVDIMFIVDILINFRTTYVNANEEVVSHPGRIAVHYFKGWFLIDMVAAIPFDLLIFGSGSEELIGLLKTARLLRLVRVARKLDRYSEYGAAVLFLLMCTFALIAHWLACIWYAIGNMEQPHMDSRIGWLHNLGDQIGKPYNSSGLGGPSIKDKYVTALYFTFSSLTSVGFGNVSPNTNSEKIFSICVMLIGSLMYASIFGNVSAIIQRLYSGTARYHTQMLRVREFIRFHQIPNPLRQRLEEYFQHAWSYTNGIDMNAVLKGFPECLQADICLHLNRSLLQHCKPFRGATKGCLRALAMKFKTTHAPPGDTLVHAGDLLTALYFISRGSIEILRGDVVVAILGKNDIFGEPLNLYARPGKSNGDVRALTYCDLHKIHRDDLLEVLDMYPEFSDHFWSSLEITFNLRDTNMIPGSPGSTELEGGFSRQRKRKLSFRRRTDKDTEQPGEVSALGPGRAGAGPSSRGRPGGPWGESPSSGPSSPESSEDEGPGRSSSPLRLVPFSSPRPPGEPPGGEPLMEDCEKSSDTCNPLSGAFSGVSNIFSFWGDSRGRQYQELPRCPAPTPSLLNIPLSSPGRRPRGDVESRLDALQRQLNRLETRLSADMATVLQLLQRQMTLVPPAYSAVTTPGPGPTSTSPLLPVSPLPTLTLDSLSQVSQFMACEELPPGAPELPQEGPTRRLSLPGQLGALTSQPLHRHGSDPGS

[15] = Oral bioavailability in mouse; type: ADME, organism-based; details: in vivo
[16] = target: Inosine-5'-monophosphate dehydrogenase (Mycobacterium tuberculosis (strain ATCC 25618 / H37Rv), UniProt P9WKI7); assay: Inhibition of Mycobacterium tuberculosis GuaB
Chain of Inosine-5'-monophosphate dehydrogenase (P9WKI7 whole entry): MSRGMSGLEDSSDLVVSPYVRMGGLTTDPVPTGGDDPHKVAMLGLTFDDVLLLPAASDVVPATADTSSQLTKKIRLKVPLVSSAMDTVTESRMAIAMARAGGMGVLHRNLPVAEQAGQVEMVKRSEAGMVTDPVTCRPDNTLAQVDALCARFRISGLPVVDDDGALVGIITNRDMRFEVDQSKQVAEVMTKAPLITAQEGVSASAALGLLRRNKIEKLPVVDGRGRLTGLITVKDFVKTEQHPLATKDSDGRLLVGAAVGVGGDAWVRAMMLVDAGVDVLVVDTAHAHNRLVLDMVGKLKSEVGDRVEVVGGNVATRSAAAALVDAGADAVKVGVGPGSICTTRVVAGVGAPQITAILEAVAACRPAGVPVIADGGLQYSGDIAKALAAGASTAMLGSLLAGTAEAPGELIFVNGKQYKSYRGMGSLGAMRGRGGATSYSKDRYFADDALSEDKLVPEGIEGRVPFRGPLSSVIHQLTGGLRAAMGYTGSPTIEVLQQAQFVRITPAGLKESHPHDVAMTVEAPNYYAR

[17] = test system: IMPDH; assay: Inhibition of human IMPDH; type: toxicity
[18] = Cytotoxicity against human primary hepatocytes in presence of serum; type: toxicity, cell-based, Hepatocyte
[19] = Cytotoxicity against human primary hepatocytes in absence of serum; type: toxicity, cell-based, Hepatocyte
[20] = test system: Mycobacterium tuberculosis; assay: Antitubercular activity against Mycobacterium tuberculosis assessed as inhibition of bacterial growth; type: functional

For `C[C@@H](Oc1ccc2ncc3c(c2c1)CCOC3)c1cncc(-c2nc(Cl)c[nH]2)c1`, the MIC [1] was < 0.003 µM, the MIC [2] was 0.039 µM (≈ 0.0159 µg/mL) and the CLhep predicted [3] was 19 mL/min/kg. For the same compound, the IC50 [4] was < 10 µM, the IC50 [5] was < 10 µM and the IC50 [6] was < 10 µM. The IC50 [7] was < 10 µM, the IC50 [8] was < 10 µM and the IC50 [9] was 0.57 µM.

With `C[C@@H](Oc1ccc2c(=O)cc3n(c2c1)CCOC3)c1cncc(-n2ccc(Cl)n2)c1` the MIC [1] was 0.091 µM (≈ 0.0385 µg/mL), the CLhep predicted [3] was 16 mL/min/kg and the IC50 [9] was > 10 µM. For the same compound, the logD [10] was 2.8.

`CC(Oc1ccc2c(=O)cc3n(c2c1)CCOC3)c1cncc(-c2nc(Cl)c[nH]2)c1` (racemic) showed an MIC [1] of 0.12 µM (≈ 0.0507 µg/mL), a CLhep predicted [3] of 13 mL/min/kg and an IC50 [9] of 3.7 µM. The logD [10] was 2.2.

With `C[C@@H](Oc1ccc2c(=O)cc3n(c2c1)CCOC3)c1cncc(-c2nc(C#N)c[nH]2)c1` the MIC [1] was 0.39 µM (≈ 0.161 µg/mL), the CLhep predicted [3] was 5.5 mL/min/kg and the IC50 [9] was > 10 µM. The logD [10] was 2.1.

Compound `C/C(=N/O)c1cccc(C(C)(C)NC(=O)Nc2ccc(Cl)c(C(=O)N(C)C)c2)c1` has an MIC [11] of 16 µM (≈ 6.67 µg/mL).

`C[C@@H](Oc1cccc(-c2ccn[nH]2)c1)c1cncc(-c2nc(Cl)c[nH]2)c1` gave an MIC [1] of 3.1 µM (≈ 1.13 µg/mL), a CLhep predicted [3] of 16 mL/min/kg and an IC50 [9] of 0.32 µM.

`O=C(C1CCCCC1)N1CCN(S(=O)(=O)c2cccc3cnccc23)CC1` gave an MIC [12] of 2 µM (≈ 0.775 µg/mL).

For `C[C@@H](Oc1ccc2c(=O)cc3n(c2c1)CCOC3)c1cncc(-n2ccc(C#N)n2)c1`, the MIC [1] was 0.18 µM (≈ 0.0744 µg/mL), the CLhep predicted [3] was 11 mL/min/kg and the logD [10] was 1.7.

For `C[C@@H](Oc1ccc2c(=O)cc3n(c2c1)CCOC3)c1cc(-n2ccc(Cl)n2)cnn1`, the MIC [1] was 0.26 µM (≈ 0.11 µg/mL), the CLhep predicted [3] was 5.3 mL/min/kg and the clearance [13] was 35 mL/min/kg. The IC50 [4] was > 10 µM, the IC50 [5] was > 10 µM and the IC50 [6] was > 10 µM. For the same compound, the IC50 [8] was > 10 µM, the IC50 [9] was > 10 µM and the logD [10] was 2.3. For the same compound, the inhibition at 10 µM [14] was 28%, the bioavailability [15] was 5.2% and the IC50 [16] was 0.0017 µM. The IC50 [17] was > 50 µM, the IC50 [18] was > 100 µM and the IC50 [19] was > 100 µM.

`C[C@H](Nc1ccc2ncc3c(c2c1)CCOC3)C(=O)Nc1ccc(Cl)nc1` gave an MIC [1] of 0.035 µM (≈ 0.0134 µg/mL), an MIC [2] of 0.058 µM (≈ 0.0222 µg/mL) and a CLhep predicted [3] of 16 mL/min/kg. The clearance [13] was 132 mL/min/kg.

For `C[C@@H](Oc1ccc2ncc(CO)cc2c1)c1cncc(-c2nc(Cl)c[nH]2)c1`, the MIC [1] was 0.007 µM (≈ 0.00267 µg/mL), the CLhep predicted [3] was 12 mL/min/kg and the IC50 [9] was 2.1 µM.

In the case of `Cc1n[nH]c(C)c1S(=O)(=O)Nc1ccc2c[nH]nc2c1`, the MIC [20] is reported as 2 µM (≈ 0.583 µg/mL).

With `C[C@@H](Oc1cc(-c2ccn[nH]2)cc(N2CCOCC2)c1)c1cncc(-c2nc(Cl)c[nH]2)c1` the MIC [1] was 0.18 µM (≈ 0.0812 µg/mL) and the CLhep predicted [3] was 16 mL/min/kg.

Compound `C[C@@H](Oc1ccc2c(=O)cc3n(c2c1)CCOC3)c1cncc(-c2nc(C(F)(F)F)c[nH]2)c1` has an MIC [1] of 0.099 µM (≈ 0.0452 µg/mL), a CLhep predicted [3] of 16 mL/min/kg and an IC50 [9] of 4.3 µM. It also gave a logD [10] of 3.

With `C[C@@H](Oc1ccc(-c2ccn[nH]2)cc1)c1cncc(-c2nc(Cl)c[nH]2)c1` the MIC [1] was 0.11 µM (≈ 0.0402 µg/mL), the CLhep predicted [3] was 12 mL/min/kg and the IC50 [9] was 0.24 µM.

For `C[C@@H](Oc1ccc2c(=O)cc3n(c2c1)CCOC3)c1cc(-n2ccc(OC(F)F)n2)cnn1`, the MIC [1] was 0.29 µM (≈ 0.132 µg/mL), the CLhep predicted [3] was < 3.9 mL/min/kg and the IC50 [9] was > 10 µM. It also gave a logD [10] of 1.6 and an inhibition at 10 µM [14] of 70%.

For `C[C@@H](Oc1ccc2c(=O)cc3n(c2c1)CCOC3)c1cncc(-n2ccc(C(F)(F)F)n2)c1`, the MIC [1] was 0.29 µM (≈ 0.132 µg/mL), the CLhep predicted [3] was 18 mL/min/kg and the IC50 [9] was > 10 µM. For the same compound, the logD [10] was 3.1.

In the case of `C[C@@H](Oc1ccc2c(=O)cc3n(c2c1)CCOC3)c1cc(-n2ccc(C(F)(F)F)n2)cnn1`, the MIC [1] is reported as 0.58 µM (≈ 0.265 µg/mL), the CLhep predicted [3] is reported as 7 mL/min/kg and the IC50 [9] is reported as > 10 µM. For the same compound, the logD [10] was 2.1.
